Series [1] addresses T1, NK-2 receptor (Rattus norvegicus, UniProt P16610).
T1 construct: from tissue; host or cells: rat duodenum membrane preparation
T1 sequence (P16610 1-390): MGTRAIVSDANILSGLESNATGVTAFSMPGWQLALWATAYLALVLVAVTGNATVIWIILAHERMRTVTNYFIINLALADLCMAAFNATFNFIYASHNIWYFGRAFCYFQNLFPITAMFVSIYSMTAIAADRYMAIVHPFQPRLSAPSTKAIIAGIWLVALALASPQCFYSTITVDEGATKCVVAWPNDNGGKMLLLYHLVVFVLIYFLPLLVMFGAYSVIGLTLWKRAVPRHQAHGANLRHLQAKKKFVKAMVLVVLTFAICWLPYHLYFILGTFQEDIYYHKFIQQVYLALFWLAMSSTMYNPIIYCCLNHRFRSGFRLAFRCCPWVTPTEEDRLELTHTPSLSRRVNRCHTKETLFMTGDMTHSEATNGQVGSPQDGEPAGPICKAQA
Nature of the series: NK-2 receptor binding test (125I-neurokinin A, rat duodenum membrane preparation). As to conditions: rat duodenum membranes, 125I-neurokinin A 1×10^−9 M, room temperature, 90 minutes; read-out: IC50 of the drug against radioactive neurokinin A binding. On the procedure:
NK-2 Receptor Binding Test
The duodenum taken out from a Fischer-strain male rat was homogenized in a 50 mM tris-hydrochloride buffer solution containing ethylenediaminetetracetic acid (1 mM), and 48,000 g of the obtained homogenate was subjected to centrifugal sedimentation at 4° C. for 20 minutes. The produced pellets were washed thrice with 10 times as much volume of a 50 mM trishydrochloride butter solution containing KCl (300 mM) and ethylenediaminetetracetic acid (10 mM), and the obtained membrane preparation was suspended in 10 times as much volume of a 50 mM tris-hydrochloride buffer solution (pH 7.4) and kept at −80° C. till it was offered to use. The above membrane preparation (20 mg/ml) was incubated with a radioactive legand 125 I-neurokinin A (1×10^−9 M) in a 50 mM tris-hydrochloride buffer solution (pH 7.4) containing bovine serum albumin (10 mg/ml), bacitracin (40 μg/ml), leupepsin (4 μg/ml), chymostatin (50 μg/ml), antipain (1×10^−4 M) and MnCl2 (1 mM) in the presence of a drug or its solvent at room temperature for 90 minutes. The reaction solution was suction-filtered by a GE/B filter pretreated with polyethylene-imine (0.1%), and was washed with 3 ml of a 50 mM tris-hydrochloride buffer solution (pH 7.4) containing MnCl2 (1 mM), and the radioactivity in the filter was measured by a gamma counter. With the radioactivity in the presence of Nle10 eurokinin A (4-10) (3×10^−6 M) being taken as non-specific binding, the specific binding inhibition rate by the drug was given as control in the case of a solvent, and the 50% inhibition concentration (IC50) of the drug was determined from the linear regression.

The target in series [2] is T2, NK-2 receptor (Cavia porcellus, UniProt Q64077).
T2 construct: Specimens were prepared by joining 5 slices from said trachea; from tissue; host or cells: isolated guinea pig trachea (A2); anesthetized guinea pig airway in vivo (A5)
T2 sequence (Q64077 1-402): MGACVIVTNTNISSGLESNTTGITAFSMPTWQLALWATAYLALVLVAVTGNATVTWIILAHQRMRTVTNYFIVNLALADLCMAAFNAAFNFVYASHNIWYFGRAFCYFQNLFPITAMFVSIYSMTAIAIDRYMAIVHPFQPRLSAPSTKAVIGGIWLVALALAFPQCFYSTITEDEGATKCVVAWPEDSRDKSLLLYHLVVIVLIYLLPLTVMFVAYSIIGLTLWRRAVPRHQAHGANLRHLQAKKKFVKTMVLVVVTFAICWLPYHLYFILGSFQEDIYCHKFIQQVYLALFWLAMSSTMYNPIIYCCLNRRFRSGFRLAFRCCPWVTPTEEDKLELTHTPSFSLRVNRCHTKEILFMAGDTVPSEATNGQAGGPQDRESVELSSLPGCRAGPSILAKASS
As to the kind of experiment: Inhibitory action against stricture of airway caused by NK-2 receptor stimulation and antigen inhalation. It counts as in vivo. As to conditions: guinea pig. On the procedure: Inhibitory Action Against Stricture of Airway
The non-treated Hartley strain male guinea pigs and the Hartley strain male guinea pigs which had been actively sensitized by subcutaneous administration of 300 mg/kg of ovalbumin 14 to 21 days ago were used. A tube was inserted into the trachea of each guinea pig anesthetized with pentobarbital, and positive pressure breathing was conducted at a rate of 60 times of breathing per minute (10 ml/kg) by an artificial breathing system. Lateral pressure of the tube in the trachea was measured as an index of stricture of airway. Spontaneous respiration was inhibited by the administration of succinylcholine. To the non-treated guinea pigs, 2 μmol of Nle10 neurokinin A (4-10)—a specific stimulant to NK-2 receptor—was intravenously injected repeatedly at intervals of 10 minutes. After the induced airway restriction reaction was stabilized, the drug was administered intravenously or perorally. 3 minutes after intravenous administration or 50 minutes after peroral or intraduodenal administration, Nle10 neurokinin A (4-10) was again intravenously injected. The inhibition rate by the drug was determined with the degree of airway restriction before drug administration as control.
15 minutes after intravenous administration of 4.6 μmol/kg of phosphoramidon to each actively sensitized guinea pig, it was forced to inhale, for 2 minutes, an aerosol of an antigen ovalbumin solution (2 mg/ml) generated by a supersonic nebulizer to induce stricture of the airway. The drug or its solvent was administered perorally 50 minutes before the antigen inhalation. 8 minutes after antigen inhalation of the solvent-administered group, the inhibition rate of the drug-administered group was determined with the degree of airway stricture of the solvent-administered group as control.

A further series has as its system Mouse. As to the kind of experiment: Toxic action in mouse, intravenous administration. It counts as in vivo. The source says: Toxicity of the novel naphthyridine derivatives of the present invention was examined.
For series [3], the target named is T2, NK-2 receptor. Nature of the series: Antagonistic action against NK-2 receptor: neurokinin A-induced contraction of isolated guinea pig trachea. As to conditions: drug concentration 5 × 10^−9 M, neurokinin A 1×10^−9 M, 110-minute incubation, read-out: Inhibition rate of neurokinin A-induced contraction. The series is classed as cell-based. How it is done:
Antagonistic Action Against NK-2 Receptor
A Hartley-strain male guinea pig was caused to die by head contusion and blood depletion, and its trachea was extracted. Specimens were prepared by joining 5 slices from said trachea, and they were suspended with a tension of 0.5 gram-weight in a 15-ml Magunus tank containing a 37° C. Krebs-Henseleit liquid through which a mixed gas of 95% O2 and 5% CO2 had been passed. A Krebs-Henseleit liquid containing indomethacin (5×10^−6 M) was used to obviate the participation of endogenous prostaglandin. After confirming the maximum contraction of each specimen by methacholine, a drug or its solvent was added and, after 110-minute incubation, neurokinin A (1×10^−9 M) was acted thereto. Phosphoramidon (1×10^−5 M) was added for inhibiting decomposition of neurokinin A 30 minutes before the addition of neurokinin A and (±) CP-96345 (3×10^−7 M) was added for eliminating the participation of NK-1 receptor 20 minutes before the addition of neurokinin A. The contraction by neurokinin A was first determined as a ratio to the maximum contraction of each specimen, and then the inhibition rate by the drug was determined with the amount of contraction of the solvent-added specimen as control.

The next series has as its target T3, NK-1 receptor (Cavia porcellus, UniProt P30547).
T3 construct: its ileum was extracted; An approximately 3 cm long specimen was prepared therefrom; from tissue; host or cells: isolated guinea pig ileum
As to the kind of experiment: Antagonistic action against NK-1 receptor: Methyl Substance P-induced contraction of isolated guinea pig ileum. It counts as cell-based. As to conditions: Methyl Substance P 1×10^−9 M, 35-minute incubation, read-out: IC50 of the drug against contraction by Methyl Substance P. How it is done:
Antagonistic Action Against NK-1 Receptor
A Hartley strain male guinea pig was caused to die by head contusion and blood depletion, and its ileum was extracted. An approximately 3 cm long specimen was prepared therefrom, and it was suspended with a tension of 0.5 gram-weight in a 15 ml Mogunus tank containing a 37° C. Krebs-Henseleit liquid through which a mixed gas of 95% O2 and 5% CO2 had been passed. A Krebs-Henseleit liquid containing atropin (1×10^−6 M) and indomethacin (5×10^−6 M) was used to get rid of the participation of endogenous acetylcholine and prostaglandin. Methyl Substance P (1×10^−9 M), which is a specific stimulant of NK-1 receptor, was acted repeatedly at intervals of 40 minutes. After contraction by Methyl Substance P was stabilized, the drug was added in various concentrations and, after 35-minute incubation, Methyl Substance P was again acted. The contraction inhibition rate by the drug was determined with the contraction just before the addition of the drug as control, and the 50% inhibition concentration (IC50) of the drug was calculated from the linear regression.

In another series the target is T4, NK-3 receptor (Cavia porcellus, UniProt P30098).
T4 construct: its ileum was extracted; An approximately 3 cm long specimen was prepared therefrom; from tissue; host or cells: isolated guinea pig ileum
T4 sequence (P30098 1-440): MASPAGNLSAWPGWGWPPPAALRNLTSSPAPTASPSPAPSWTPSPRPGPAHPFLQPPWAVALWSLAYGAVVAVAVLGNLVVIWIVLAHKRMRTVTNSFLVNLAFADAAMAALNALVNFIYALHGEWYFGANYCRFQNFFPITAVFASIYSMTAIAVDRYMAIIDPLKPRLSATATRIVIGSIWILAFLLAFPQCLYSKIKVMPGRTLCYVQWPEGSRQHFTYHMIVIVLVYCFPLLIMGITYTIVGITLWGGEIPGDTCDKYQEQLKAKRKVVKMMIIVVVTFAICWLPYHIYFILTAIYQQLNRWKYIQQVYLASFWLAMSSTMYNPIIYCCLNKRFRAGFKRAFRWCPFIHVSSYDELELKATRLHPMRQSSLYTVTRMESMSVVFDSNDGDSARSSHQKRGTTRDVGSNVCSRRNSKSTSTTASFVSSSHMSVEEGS
As to the kind of experiment: Antagonistic action against NK-3 receptor: senktide-induced contraction of isolated guinea pig ileum. The series is classed as cell-based. As to conditions: senktide 1×10^−9 M, 35-minute incubation, read-out: IC50 of the drug against contraction by senktide. On the procedure: Antagonistic Action Against NK-3 Receptor
A Hartley-strain male guinea pig was caused to die by head contusion and blood depletion, and its ileum was extracted. An approximately 3 cm long specimen was prepared therefrom, and it was suspended with a tension of 0.5 gram-weight in a 15 ml Magunus tank containing a 37° C. Kregs-Henseleit liquid through which a mixed gas of 95% O2 and 5% CO2 had been passed. A Krebs-Henseleit liquid containing atropin (1×10^−6 M) and indomethacin (5×10^−6 M) was used to obviate the participation of endogenous acetylcholine and prostaglandin. Senktide (1×10^−9 M), which is a specific stimulant of NK-3 receptor, was acted repeatedly at intervals of 50 minutes. After contraction by senktide was stabilized, the drug was added in various concentrations and, after 35-minute incubation, senktide was again acted. The contraction inhibition rate by the drug was determined with the amount of contraction just before the addition of the drug as control, and the 50% inhibition concentration (IC50) of the drug was determined from the linear regression.

The values below come from patent US6433174B1, “Process for producing novel naphthyridine derivatives” (Nippon Kayaku Kabushiki Kaisha, priority 1998, dated 2002).

T3 sequence (P30547 whole entry): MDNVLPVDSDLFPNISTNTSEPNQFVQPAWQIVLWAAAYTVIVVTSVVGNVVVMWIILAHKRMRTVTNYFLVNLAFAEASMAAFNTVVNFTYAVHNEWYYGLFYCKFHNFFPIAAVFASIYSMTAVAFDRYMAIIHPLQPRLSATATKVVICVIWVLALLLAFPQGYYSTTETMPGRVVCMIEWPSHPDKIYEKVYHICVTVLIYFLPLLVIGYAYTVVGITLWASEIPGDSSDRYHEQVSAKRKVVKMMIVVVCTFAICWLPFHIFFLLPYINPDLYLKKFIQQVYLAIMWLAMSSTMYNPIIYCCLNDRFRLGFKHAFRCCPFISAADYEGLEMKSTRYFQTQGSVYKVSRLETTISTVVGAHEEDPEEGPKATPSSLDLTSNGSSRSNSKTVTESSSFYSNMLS

What is called IC50 is the concentration that gives 50% inhibition. As for `CC(=O)Nc1c2c(nc3ccccc13)CCN(CCC(CN(C)C(=O)c1ccccc1)c1ccc(Cl)c(Cl)c1)C2` (stereo not drawn) [(6)-b], the IC50 at NK-2 receptor [1] turned out to be 18 nM. Also, the “Inhibition rate (%) NK-2 receptor stimulation and antigen inhalation” value stood at 100.0% at NK-2 receptor [2] (0.5 μmol/kg, Intravenous) and 81.5% on NK-2 receptor [2] (8 μmol/kg, Peroral). Moreover, in the series with Mouse (65 μmol/kg intravenous), the “Toxicity by intravenous administration of the drug” value is recorded as “None”.
Usually inhibition stands for the change of the read-out against control, counted positive when it falls. In the case of `CN(CC(CCN1CCc2nc3c(cc2C1)CCCC3)c1ccc(Cl)c(Cl)c1)C(=O)c1ccccc1` (stereo not drawn) [(2)-b], the figures for the IC50 at NK-2 receptor [1], at NK-1 receptor and at NK-3 receptor were 56 nM, 470 nM and 180 nM, respectively. Besides, at NK-2 receptor [3], the inhibition at 0.005 µM amounted to 89.1%. For the same molecule, the “Inhibition rate (%) NK-2 receptor stimulation and antigen inhalation” value was 94.2% at NK-2 receptor [2] (1 μmol/kg, Intravenous); 67.2% on NK-2 receptor [2] (8 μmol/kg, Peroral); 54.1% on NK-2 receptor [2] (10 μmol/kg, Peroral). Moreover, the “Toxicity by intravenous administration of the drug” value with Mouse (22 μmol/kg intravenous) and with Mouse (65 μmol/kg intravenous) was “None” in each case.
For the molecule `CN(CC(CCN1CCc2nc3ccccc3c(-c3ccccc3)c2C1)c1ccc(Cl)c(Cl)c1)C(=O)c1ccccc1` (stereo not drawn) [(3)-b], at NK-2 receptor [1], the IC50 is 70 nM. The “Inhibition rate (%) NK-2 receptor stimulation and antigen inhalation” value on NK-2 receptor [2] (0.5 μmol/kg, Intravenous) came out at 70.0%.
